# Experimental data from patent publication US20250304620A1, “ANTIMICROBIAL PEPTIDE AND APPLICATION THEREOF” (priority 2023, published 2025).
# Marks after values point to notes of the source that are not given here. Non-standard residues stand in square brackets, D forms with d. Residues, ends and D or L forms follow the SMILES beside them. d2Nal = N[C@H](Cc1ccc2ccccc2c1)C(=O)O
# Assays:
# [1] = system: Candida albicans ATCC MYA-2876; type: cell-based
# Excerpt: (§1) According to the Standards of Clinical and Laboratory Standards Institute (CLSI) of the USA for antimicrobial drug susceptibility test operation standards, the micronutrient serial twofold dilution method was used further determine MICs of 30 AMPs (S/N: LV-1 to LV-30) 10 clinically common sensitive strains and 6 fungi in clinical practice. The experiment was repeated 5 times in parallel.
# Candida krusei ATCC 6258 = type: cell-based
# Excerpt: as §1
# [2] = system: Candida tropicalis ATCC 750; type: cell-based
# Excerpt: as §1
# [3] = system: Corynebacterium ATCC 7715; type: cell-based
# Excerpt: as §1
# Enterococcus ATCC 29212 = type: cell-based
# Excerpt: as §1
# [4] = system: Escherichia coli ATCC 25922; type: cell-based
# Excerpt: as §1
# [5] = system: Klebsiella pneumoniae ATCC 700603; type: cell-based
# Excerpt: as §1
# [6] = system: Pseudomonas aeruginosa ATCC 27853; type: cell-based
# Excerpt: as §1
# [7] = system: Serratia marcescens ATCC 29021; type: cell-based
# Excerpt: as §1
# [8] = system: Trichophyton ATCC MYA-4438; type: cell-based
# Excerpt: as §1
# [9] = system: Shigella flexneri ATCC 12022; test: MIC against clinically common bacterial strain; type: cell-based
# Excerpt: as §1
# [10] = system: Methicillin-resistant Staphylococcus aureus (MRSA); type: cell-based; details: Methicillin-resistant
# Excerpt: (§2) According to the Standards of Clinical and Laboratory Standards Institute (CLSI) of the USA for antimicrobial drug susceptibility test operation standards, the micronutrient serial twofold dilution method was used further determine MICs of the antimicrobial peptides LV-1 to LV-30 against 5 clinically common drug-resistant bacterial strains. The experiment was repeated 5 times in parallel. […] The tested drug-resistant strains included Methicillin-resistant Staphylococcus aureus (MRSA), carbapenem-resistant Escherichia coli (CREC), vancomycin-resistant Enterococcus (VRE), carbapenem-resistant Pseudomonas aeruginosa (CRPA), and carbapenem-resistant Klebsiella pneumoniae (CRKP).
# [11] = system: carbapenem-resistant Escherichia coli (CREC); type: cell-based; details: carbapenem-resistant (CREC)
# Excerpt: as §2
# [12] = system: carbapenem-resistant Klebsiella pneumoniae (CRKP); type: cell-based; details: carbapenem-resistant (CRKP)
# Excerpt: as §2
# [13] = system: carbapenem-resistant Pseudomonas aeruginosa (CRPA); type: cell-based; details: carbapenem-resistant (CRPA)
# Excerpt: as §2
# [14] = system: vancomycin-resistant Enterococcus (VRE); type: cell-based
# Excerpt: as §2
# [15] = system: Staphylococcus aureus (NRS 384); details: NRS 384, 3 h
# Procedure: Trypsin (250 U/mg, pH=8.0) and AMPs (LV-1 to LV-30) were mixed in a ratio of 1:10 (w/w) and added to a reaction buffer (0.2 M sodium phosphate, 1 mM CaCl2), pH 7.5), and then incubated at 37° C. for 3 h.
# [16] = system: Pseudomonas aeruginosa ATCC 27853; test: Injectable formulations on mice infected with peritonitis; type: in vivo, ICR mice; details: twice a day for 3 days; for Number of mice that died on each day after infection: day 1 / Number of mice that died on each day after infection: day 2 / Number of mice that died on each day after infection: day 3 / Number of mice that died on each day after infection: day 4 / Number of mice that died on each day after infection: day 5 / Average survival times (Days): n = 10; for Average survival times (Days): observed for 14 d
# Procedure: Both female and male ICR mice were used in the test, half of the female and male mice were taken and randomly assigned into groups, with 10 mice in each group, and kept in separate cages. The mice were divided into a blank control group, a negative control group, a positive control Levofloxacin group, and AMPs LV-1 to LV-30 groups. A bacterial suspension of Pseudomonas aeruginosa ATCC 27853 was prepared, a concentration of the suspension was adjusted 1×10^9 CFU/mL for subsequent use. Except for the blank control group, all other mice were injected with the bacterial suspension (0.2 mL, 1×10^9 CFU/mL), into abdominal cavity of the mice, to establish a model. After the model was successfully established, the mice were given drug immediately according to their body weights. Except for the blank control group and the negative control group, the mice in all other groups were administered the corresponding injectable formulations via tail vein, twice a day for 3 consecutive days. The mice were then observed for 14 d. The death of mice in each group was observed, and survival time of the mice was recorded. Results of the effect of the injectable formulations of AMPs LV-1 to LV-30 on the survival time of mice infected with Pseudomonas aeruginosa are shown in Table 10.
# [17] = system: Escherichia coli ATCC 25922; test: Oral formulations on mice with systemic bacterial infection; type: in vivo, ICR mice; details: three times a day for 7 days; for Number of mice that died on each day after infection: day 4 / Number of mice that died on each day after infection: day 5 / Number of mice that died on each day after infection: day 6 / Number of mice that died on each day after infection: day 7 / Number of mice that died on each day after infection: day 8 / Average survival times (Days): n = 10; for Average survival times (Days): observed for 14 d
# Procedure: Both female and male ICR mice were used in the test, half of the female and male mice were taken and randomly assigned into groups, with 10 mice in each group, and kept in separate cages. The mice were divided into a blank control group, a negative control group, a positive control Levofloxacin group, and AMPs LV-1 to LV-30 groups. An Escherichia coli ATCC 25922 bacterial suspension was prepared, a concentration of the suspension was adjusted 1×10^7 CFU/mL for subsequent use. Except for the blank control group, all other mice were injected with the Escherichia coli suspension (0.2 mL, 1×10^7 CFU/mL), into abdominal cavity of the mice, to establish a model. After the model was successfully established, the mice were given drug immediately according to their body weights. Except for the blank control group and the negative control group, the mice in all other groups were gavaged with different compounds, three times a day for 7 consecutive days. The mice were then observed for 14 d. The death of mice in each group was observed, and survival time of the mice was recorded. Results of the effect of the oral formulations of AMPs LV-1 to LV-30 on the survival time of mice infected with Escherichia coli are shown in Table 11.
smiles,measurement,setting,value
CC(=O)N[C@H](CCCNC(=N)N)C(=O)N[C@H](CCCNC(=N)N)C(=O)N[C@H](CC(C)C)C(=O)N[C@H](CC(C)C)C(=O)N[C@H](Cc1ccc2ccccc2c1)C(=O)N[C@H](CCCNC(=N)N)C(=O)N[C@H](CC(C)C)C(=O)N[C@H](CCCNC(=N)N)C(=O)N[C@H](Cc1ccc2ccccc2c1)C(=O)N[C@H](CCCNC(=N)N)C(=O)N[C@H](CCCNC(=N)N)C(N)=O [LV-1] (Ac-[dR][dR][dL][dL][d2Nal][dR][dL][dR][d2Nal][dR][dR]-NH2),MIC Candida albicans ATCC MYA-2876,[1],8 µg/mL
same,MIC Candida krusei ATCC 6258,Candida krusei ATCC 6258,4 µg/mL
same,MIC Candida tropicalis ATCC 750,[2],4 µg/mL
same,MIC Corynebacterium ATCC 7715,[3],2 µg/mL
same,MIC Enterococcus ATCC 29212,Enterococcus ATCC 29212,2 µg/mL
same,MIC Escherichia coli ATCC 25922,[4],1 µg/mL
same,MIC Klebsiella pneumoniae ATCC 700603,[5],4 µg/mL
same,MIC Pseudomonas aeruginosa ATCC 27853,[6],1 µg/mL
same,MIC Serratia marcescens ATCC 29021,[7],2 µg/mL
same,MIC Trichophyton ATCC MYA-4438,[8],8 µg/mL
same,MIC Shigella flexneri ATCC 12022,[9],4 µg/mL
same,MIC MRSA,[10],4 µg/mL
same,MIC CREC,[11],2 µg/mL
same,MIC CRKP,[12],2 µg/mL
same,MIC CRPA,[13],4 µg/mL
same,MIC VRE,[14],4 µg/mL
same,Trypsin MIC,[15],1 µg/mL
same,Number of mice that died on each day after infection: day 1,[16]; 0.2 mg/kg via tail vein,1 Mouse
same,Number of mice that died on each day after infection: day 2,[16]; 0.2 mg/kg via tail vein,2 Mouse
same,Number of mice that died on each day after infection: day 3,[16]; 0.2 mg/kg via tail vein,1 Mouse
same,Number of mice that died on each day after infection: day 4,[16]; 0.2 mg/kg via tail vein,1 Mouse
same,Number of mice that died on each day after infection: day 5,[16]; 0.2 mg/kg via tail vein,1 Mouse
same,Average survival times (Days),[16]; 0.2 mg/kg via tail vein,7.3** Days
same,Number of mice that died on each day after infection: day 1,[16]; 1 mg/kg via tail vein,0 Mouse
same,Number of mice that died on each day after infection: day 2,[16]; 1 mg/kg via tail vein,1 Mouse
same,Number of mice that died on each day after infection: day 3,[16]; 1 mg/kg via tail vein,1 Mouse
same,Number of mice that died on each day after infection: day 4,[16]; 1 mg/kg via tail vein,1 Mouse
same,Number of mice that died on each day after infection: day 5,[16]; 1 mg/kg via tail vein,0 Mouse
same,Average survival times (Days),[16]; 1 mg/kg via tail vein,10.7**** Days
same,Number of mice that died on each day after infection: day 1,[16]; 5 mg/kg via tail vein,2 Mouse
same,Number of mice that died on each day after infection: day 2,[16]; 5 mg/kg via tail vein,1 Mouse
same,Number of mice that died on each day after infection: day 3,[16]; 5 mg/kg via tail vein,1 Mouse
same,Number of mice that died on each day after infection: day 4,[16]; 5 mg/kg via tail vein,0 Mouse
same,Number of mice that died on each day after infection: day 5,[16]; 5 mg/kg via tail vein,0 Mouse
same,Average survival times (Days),[16]; 5 mg/kg via tail vein,9.1** Days
same,survival time of mice infected with Pseudomonas aeruginosa,"[16]; tail vein, observed 14 d",superior to those of the Levofloxacin group
same,Number of mice that died on each day after infection: day 4,[17]; 0.2 mg/kg gavage,0 Mouse
same,Number of mice that died on each day after infection: day 5,[17]; 0.2 mg/kg gavage,3 Mouse
same,Number of mice that died on each day after infection: day 6,[17]; 0.2 mg/kg gavage,1 Mouse
same,Number of mice that died on each day after infection: day 7,[17]; 0.2 mg/kg gavage,0 Mouse
same,Number of mice that died on each day after infection: day 8,[17]; 0.2 mg/kg gavage,1 Mouse
same,Average survival times (Days),[17]; 0.2 mg/kg gavage,9.9** Days
same,Number of mice that died on each day after infection: day 4,[17]; 1 mg/kg gavage,0 Mouse
same,Number of mice that died on each day after infection: day 5,[17]; 1 mg/kg gavage,0 Mouse
same,Number of mice that died on each day after infection: day 6,[17]; 1 mg/kg gavage,1 Mouse
same,Number of mice that died on each day after infection: day 7,[17]; 1 mg/kg gavage,1 Mouse
same,Number of mice that died on each day after infection: day 8,[17]; 1 mg/kg gavage,1 Mouse
same,Average survival times (Days),[17]; 1 mg/kg gavage,11.9**** Days
same,Number of mice that died on each day after infection: day 4,[17]; 5 mg/kg gavage,0 Mouse
same,Number of mice that died on each day after infection: day 5,[17]; 5 mg/kg gavage,0 Mouse
same,Number of mice that died on each day after infection: day 6,[17]; 5 mg/kg gavage,2 Mouse
same,Number of mice that died on each day after infection: day 7,[17]; 5 mg/kg gavage,1 Mouse
same,Number of mice that died on each day after infection: day 8,[17]; 5 mg/kg gavage,0 Mouse
same,Average survival times (Days),[17]; 5 mg/kg gavage,11.7**** Days
same,survival time of mice infected with Escherichia coli,"[17]; gavage, observed 14 d",superior to those of the Levofloxacin group
